Consider nine molecules from ChEMBL document CHEMBL1641578, “Design and synthesis of 3-(azol-1-yl)phenylpropanes as microbicidal spermicides for prophylactic contraception” (Bioorg Med Chem Lett, 2011).

For orientation: MIC means the least concentration at which growth counts as inhibited.

Molecules are shown by their SMILES. Converted amounts (≈) assume the structure as drawn. A value given as a limit tells only on which side of the number the result lay.

One data set relates to Trichomonas vaginalis. Nature of the data set: Antitrichomonas activity against Trichomonas vaginalis after 48 hrs by trypan blue exclusion assay. Format: functional.
Data set [1] deals with Candida albicans. The data set can be described thus: Antifungal activity against Candida albicans NCIM-3557 after 48 hrs by broth microdilution assay. Format: functional. The conditions noted are these: NCIM-3557, 48 h. Background: In broth dilution the organism is exposed to a series of concentrations in liquid medium.
Data set [2] can be described thus: Toxicity against Lactobacillus acidophilus at 200 ug/ml after 24 hrs by microplate reader.
The test system of data set [3] is Candida albicans. The data set can be described thus: Antifungal activity against Candida albicans after 48 hrs by broth microdilution assay. Format: functional.
In data set [4] the test system is Candida albicans. Nature of the data set: Antifungal activity against Candida albicans MTCC-183 after 48 hrs by broth microdilution assay. In kind it is functional. The conditions noted are these: MTCC-183, 48 h.
A further data set has as its system HeLa. The data set can be described thus: Cytotoxicity against human HeLa cells at 200 ug/ml after 24 hrs by MTT based colorimetric assay. Format: cell-based. (Tetrazolium dyes change colour on reduction, which living cells bring about.)
The test system of the next data set is Spermatozoa. Nature of the data set: Spermicidal activity against human spermatozoa assessed as immobilization measured for 60 seconds by visual scoring. In kind it is functional. Details: concentration or dose not given beside the values.
Another data set relates to Candida parapsilosis. The data set can be described thus: Antifungal activity against Candida parapsilosis after 48 hrs by broth microdilution assay. In kind it is functional. The conditions noted are these: Lodderomyces parapsilosis.
Data set [5] deals with Candida albicans. The data set can be described thus: Antifungal activity against Candida albicans isolate CDRI after 48 hrs by broth microdilution assay. In kind it is functional.

On to `O=C(CCn1cnc2ccccc21)c1ccccc1`, for which the MIC in the data set with Trichomonas vaginalis was 200 µg/mL (≈ 799 µM); against Candida albicans [1] it was 50 µg/mL (≈ 200 µM); in the data set on Candida albicans [3], 25 µg/mL (≈ 99.9 µM); in the data set on Candida albicans [4], greater than 50 µg/mL; against Candida parapsilosis, 50 µg/mL (≈ 200 µM); with Candida albicans [5] it was 25 µg/mL (≈ 99.9 µM). The Activity result in [2] was “Non-toxic”; in the data set on HeLa, “Non-toxic”; in the data set with Spermatozoa it was 100%.
As for `O=C(CCn1cncn1)c1ccccc1`, the MIC in the data set with Trichomonas vaginalis is greater than 200 µg/mL; against Candida albicans [1], greater than 50 µg/mL; with Candida albicans [3], greater than 50 µg/mL; in the data set on Candida albicans [4] it was greater than 50 µg/mL; in the data set on Candida parapsilosis it was greater than 50 µg/mL; in the data set on Candida albicans [5], 50 µg/mL (≈ 248 µM). In addition, the values for the Activity result (in data set [2]; in the data set on HeLa; in the data set on Spermatozoa) were “Non-toxic”, “Non-toxic” and 60%, respectively.
Regarding `O=C(CCn1nnc2ccccc21)c1ccccc1`, the MIC in the data set on Trichomonas vaginalis was 200 µg/mL (≈ 796 µM); in the data set on Candida albicans [1], 50 µg/mL (≈ 199 µM); in the data set with Candida albicans [3], greater than 50 µg/mL; in the data set on Candida albicans [4], greater than 50 µg/mL; with Candida parapsilosis, 50 µg/mL (≈ 199 µM); in the data set with Candida albicans [5], greater than 50 µg/mL. Further, the figures for the Activity result (in data set [2]; in the data set with HeLa; in the data set with Spermatozoa) were “Non-toxic”, “Non-toxic” and 80%, respectively.
With `Cc1nccn1CCC(=O)c1ccccc1`, the MIC in the data set on Trichomonas vaginalis is greater than 200 µg/mL; against Candida albicans [1], greater than 50 µg/mL; in the data set with Candida albicans [3], greater than 50 µg/mL; in the data set with Candida albicans [4] it was greater than 50 µg/mL; against Candida parapsilosis, greater than 50 µg/mL; in the data set on Candida albicans [5], 50 µg/mL (≈ 233 µM). The Activity entry in data set [2] is “Non-toxic”; in the data set on HeLa, “Toxic”; with Spermatozoa it was 100%.
As for `O=C(CCn1cnc([N+](=O)[O-])c1)c1ccccc1`, the MIC against Trichomonas vaginalis is 25 µg/mL (≈ 102 µM); with Candida albicans [1], greater than 50 µg/mL; with Candida albicans [3], 50 µg/mL (≈ 204 µM); against Candida albicans [4], greater than 50 µg/mL; against Candida parapsilosis it was greater than 50 µg/mL; in the data set on Candida albicans [5] it was 50 µg/mL (≈ 204 µM). In addition, the results for the Activity result (in data set [2]; in the data set with HeLa; with Spermatozoa) were “Non-toxic”, “Non-toxic” and 100%, respectively.
Turning to `Cc1ncc([N+](=O)[O-])n1CCC(=O)c1ccccc1`, the MIC against Trichomonas vaginalis was 50 µg/mL (≈ 193 µM); against Candida albicans [1] it was greater than 50 µg/mL; against Candida albicans [3], greater than 50 µg/mL; in the data set on Candida albicans [4] it was greater than 50 µg/mL; in the data set on Candida parapsilosis, greater than 50 µg/mL; with Candida albicans [5], 50 µg/mL (≈ 193 µM). The Activity result in data set [2] is given as “Non-toxic”; in the data set with HeLa it was “Non-toxic”; with Spermatozoa, 90%.
For `OC(CCn1ccnc1)c1ccccc1` (stereo unspecified), the MIC against Trichomonas vaginalis is greater than 200 µg/mL; in the data set on Candida albicans [1] it was greater than 50 µg/mL; in the data set with Candida albicans [3] it was greater than 50 µg/mL; against Candida albicans [4], greater than 50 µg/mL; with Candida parapsilosis, greater than 50 µg/mL; in the data set with Candida albicans [5] it was 50 µg/mL (≈ 247 µM). The values for the Activity result (in [2]; in the data set on HeLa; in the data set with Spermatozoa) were “Non-toxic”, “Non-toxic” and 90%, respectively.
As to `OC(CCn1cnc2ccccc21)c1ccccc1` (stereo unspecified), the MIC in the data set with Trichomonas vaginalis was greater than 200 µg/mL; with Candida albicans [1], greater than 50 µg/mL; in the data set on Candida albicans [3] it was greater than 50 µg/mL; with Candida albicans [4] it was greater than 50 µg/mL; with Candida parapsilosis, greater than 50 µg/mL; against Candida albicans [5], 50 µg/mL (≈ 198 µM). Further, the Activity result in data set [2] is recorded as “Non-toxic”; with HeLa, “Non-toxic”; in the data set with Spermatozoa, 90%.
In the case of `CCCCCCCCCc1ccc(OCCOCCOCCOCCOCCOCCOCCOCCOCCO)cc1` [NONOXYNOL 9], the minimum inhibitory concentration (MIC) is 37.4 µg/mL (≈ 60.6 µM) in the data set on Trichomonas vaginalis; greater than 50 µg/mL against Candida albicans [1]; greater than 50 µg/mL in the data set with Candida albicans [3]; greater than 50 µg/mL in the data set with Candida albicans [4]; 50 µg/mL (≈ 81.1 µM) in the data set on Candida parapsilosis; greater than 50 µg/mL in the data set on Candida albicans [5]. Further, the Activity entry in [2] is listed as “Non-toxic”; in the data set on HeLa it was “Non-toxic”; in the data set on Spermatozoa, 100%.
